# From patent publication US11198696B2, “Substituted xanthines as inhibitors of transient receptor potential cation channel subfamily c, member 5 activity” (Boehringer Ingelheim International GmbH, priority 2018, dated 2021)
# Biological target: T1, TRPC5 (Homo sapiens, UniProt Q9UL62)
# T1 construct: expressed in transfected cells; host or cells: HEK293 TREx cells, inducible TRPC5 expression, induced 20-48 hours
# T1 sequence (Q9UL62 1-973): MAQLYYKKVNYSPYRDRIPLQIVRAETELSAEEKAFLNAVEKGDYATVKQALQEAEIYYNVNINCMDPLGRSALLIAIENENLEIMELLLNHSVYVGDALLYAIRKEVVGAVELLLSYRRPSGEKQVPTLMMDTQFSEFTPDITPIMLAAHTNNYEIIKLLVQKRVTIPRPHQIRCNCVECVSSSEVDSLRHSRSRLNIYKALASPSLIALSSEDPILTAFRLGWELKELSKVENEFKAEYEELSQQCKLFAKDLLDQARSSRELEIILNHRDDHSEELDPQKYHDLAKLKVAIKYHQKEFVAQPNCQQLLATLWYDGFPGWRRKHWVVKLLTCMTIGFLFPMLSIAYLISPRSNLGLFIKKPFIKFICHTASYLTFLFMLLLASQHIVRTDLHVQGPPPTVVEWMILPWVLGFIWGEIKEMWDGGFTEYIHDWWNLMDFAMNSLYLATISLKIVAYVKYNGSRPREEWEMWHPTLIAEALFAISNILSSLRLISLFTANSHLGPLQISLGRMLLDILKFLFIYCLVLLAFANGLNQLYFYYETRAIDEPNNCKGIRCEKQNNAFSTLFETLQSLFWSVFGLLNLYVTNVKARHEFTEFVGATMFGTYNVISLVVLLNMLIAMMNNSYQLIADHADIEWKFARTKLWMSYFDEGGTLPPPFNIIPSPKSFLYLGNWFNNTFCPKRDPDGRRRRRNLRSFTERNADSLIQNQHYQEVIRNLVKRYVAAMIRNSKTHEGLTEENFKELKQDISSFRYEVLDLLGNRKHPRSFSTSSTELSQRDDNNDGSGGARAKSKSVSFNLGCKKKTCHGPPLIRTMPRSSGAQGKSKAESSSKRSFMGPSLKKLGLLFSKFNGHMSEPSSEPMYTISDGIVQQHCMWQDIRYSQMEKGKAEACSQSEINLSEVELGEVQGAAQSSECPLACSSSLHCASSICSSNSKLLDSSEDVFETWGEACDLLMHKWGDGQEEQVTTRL
# Assay: Assay A: Determination of TRPC5-Inhibition (whole-cell patch clamp)
# Type: cell-based
# Conditions: closest prior art compounds of WO2014/143799, TRPC5-expressing HEK293 TREx cells, LaCl3-activated current
# Text: Assay A: Determination of TRPC5-Inhibition
# Patch clamp experiments permit the detection of currents through the TRPC5 channel in a cell line. In normal whole-cell patch clamp recordings, a glass electrode is brought into contact with a single cell and a high-resistance (gigaohm) seal is established with the cell membrane. The membrane is then ruptured to achieve the whole-cell configuration, permitting control of the voltage of the cell membrane and measurement of currents flowing across the membrane using the amplifier attached to the electrode and resulting in the replacement of cytoplasm with the pipette solution. A perfusion system permits control of the extracellular solution, including the addition of blockers and activators of the current. The current can be activated by including 1.4 μM free Ca2+ in the pipette (intracellular) solution, and 80 μM LaCl3 in the extracellular solution.
# TRPC5 cells were induced 20-48 hours, removed from growth plates, and replated at low density (to attain good single-cell physical separation) on glass coverslips for measurement. In some cases, cells were grown in low density overnight on glass coverslips. Patch clamp recordings were made in the whole-cell mode with a holding potential of −40 mV. Every 5 seconds, a voltage ramp was applied from −120 to +100 mV, 400 ms in duration. Currents elicited were quantified at −80 mV and +80 mV. The internal solution consisted of 140 mM cesium aspartate, 10 mM HEDTA, 2 mM CaCl2, 2.27 mM MgCl2 and 10 mM HEPES, pH 7.2, with 1,400 nM calculated free Ca2+. The external solution consisted of 150 mM NaCl, 4.5 mM 15 KCl, 1 mM MgCl2, 2 mM CaCl2, 10 mM HEPES, 10 mM glucose, 1 mM EGTA, pH 7.4. Upon addition of LaCl3, TRPC5 current was induced only in TRPC5-expressing cells and not in parental HEK293 TREx cells. Removal of the LaCh stimulus causes most of the current to go away. Potential blockers were tested for ability to block both inward and outward currents in the continued presence of LaCl3.
# IC50 of a compound of the invention was estimated by testing the compound 500 nM. […] Compounds blocking 50% or more at 500 nM are retested at multiple concentrations, and the % block is fitted by standard equations to determine IC50 accurately, using a 5/6 point concentration-response experiment.
row,IC50,SMILES
1,324 nM,"COc1ccc(-c2nc3c(c(=O)n(CCCO)c(=O)n3C)n2Cc2ccccc2)cc1 [Example 441 in WO2014/143799, reference compound]"
2,52 nM,"COc1ccc(-c2nc3c(c(=O)n(CCCO)c(=O)n3C)n2Cc2ccc(F)cc2)cc1 [Example 465 in WO2014/143799, reference compound]"

# Same assay, conditions: compounds of the present invention, TRPC5-expressing HEK293 TREx cells, LaCl3-activated current
row,SMILES,IC50
1,CCn1c(=O)n(CCCO)c(=O)c2c1nc(-c1ccc(OC3CCC3)nc1C)n2Cc1ccccc1 [Example 52],1.58 nM
2,CCn1c(=O)n(CCCO)c(=O)c2c1nc(-c1ccc(OC3CCC3)nc1)n2Cc1ccc(C)cc1 [Example 55],2.16 nM
3,CCn1c(=O)n(CCCO)c(=O)c2c1nc(-c1ccc(OC3CCC3)nc1)n2Cc1ccc(F)c(F)c1 [Example 56],2.64 nM
4,CCn1c(=O)n(CCCO)c(=O)c2c1nc(-c1ccc(OC3CCC3)nc1)n2Cc1cc(F)cc(F)c1 [Example 58],3.67 nM
5,CCn1c(=O)n(CCCO)c(=O)c2c1nc(-c1ccc(OC3CCC3C)nc1C)n2Cc1ccccc1 (stereo not drawn) [Example 60],2.09 nM
6,CCn1c(=O)n(CCCO)c(=O)c2c1nc(-c1ccc(OC3CCCC3)nc1C)n2Cc1ccccc1 [Example 61],2.43 nM
7,CCn1c(=O)n(CCCO)c(=O)c2c1nc(-c1ccc(OC3CCC3)nc1F)n2Cc1ccc(F)cc1 [Example 62],3.37 nM
8,CCn1c(=O)n(CCCO)c(=O)c2c1nc(-c1ccc(OC3CCC3)nc1)n2Cc1ccc(F)cc1 [Example 64],2.71 nM

# Continued, values first:
row,IC50,SMILES
1,3.15 nM,CCn1c(=O)n(CCCO)c(=O)c2c1nc(-c1ccc(OC3CCC3C)nc1)n2Cc1ccccc1 (stereo not drawn) [Example 63]
2,2.66 nM,C#Cc1ccc(Cn2c(-c3ccc(OC4CCC4)nc3)nc3c2c(=O)n(CCCO)c(=O)n3CC)cc1 [Example 57]
3,1.73 nM,CCn1c(=O)n(CCCO)c(=O)c2c1nc(-c1ccc(OC3C[C@@H]4C[C@@H]4C3)nc1C)n2Cc1ccc(F)cc1 (stereo partly drawn) [Example 59]
4,1.6 nM,CCn1c(=O)n(CCCO)c(=O)c2c1nc(-c1ccc(OC3CCC3)nc1)n2Cc1ccc(C(F)(F)F)cc1 [Example 54]
5,1.59 nM,CCn1c(=O)n(CCCO)c(=O)c2c1nc(-c1ccc(OC3CCC3)nc1)n2Cc1ccc(Cl)cc1F [Example 53]
